The results in this text go back to ChEMBL document CHEMBL4177599, “The antitubercular activity of various nitro(triazole/imidazole)-based compounds” (Bioorg Med Chem, 2017).

Values after ≈ are worked out from the molar mass of the structure shown.

Common to all, as to format: functional, organism-based
Experiment [1] relates to Mycobacterium tuberculosis. Nature of the experiment: Antitubercular activity against rifampicin-resistant Mycobacterium tuberculosis H37Rv RIF-R2 ATCC 35828 after 5 days. The settings on record: H37Rv RIF-R2 ATCC 35828, 120 h.
In experiment [2] the test system is Mycobacterium tuberculosis. Nature of the experiment: Antitubercular activity against isoniazid-resistant Mycobacterium tuberculosis H37Rv INH-R1 harboring katG Y155 mutant after 5 days.
In experiment [3] the test system is Mycobacterium tuberculosis. Nature of the experiment: Antitubercular activity against rifampicin-resistant Mycobacterium tuberculosis H37Rv RIF-R1 harboring rpoB S522L mutant after 5 days.
In experiment [4] the test system is Mycobacterium tuberculosis. Nature of the experiment: Antitubercular activity against isoniazid-resistant Mycobacterium tuberculosis INH-R2 ATCC 35822 after 5 days. The settings on record: INH-R2 ATCC 35822, 120 h.
Experiment [5] has as its system Mycobacterium tuberculosis. Nature of the experiment: Antitubercular activity against fluoroquinolone-resistant Mycobacterium tuberculosis H37Rv harboring gyrB D94N mutant after 5 days.

As usually defined, the IC50 is the concentration that inhibits the measured activity by half. Lower therefore signals higher potency. For orientation: IC90 means the point of the concentration-response curve where the effect stands at 90%. A low value points to an effect from little substance. As usually defined, the MIC is the least concentration at which growth counts as inhibited. Lower therefore signals a more susceptible organism. As to `O=C(Cn1cnc([N+](=O)[O-])n1)N1CCN(Cc2ccc(C(F)(F)F)cc2)CC1`, the half-maximal inhibitory concentration (IC50) in experiment [1] was 32 µM; in experiment [2], 32 µM; in experiment [3], 21 µM; in experiment [4] it was 26 µM; in experiment [5] it was 27 µM. Moreover, the IC90 was found to be 41 µM in experiment [1]; 44 µM in experiment [2]; 32 µM in experiment [3]; 32 µM in experiment [4]; 31 µM in experiment [5]. Besides, the MIC turned out to be 45 µM (≈ 17.9 µg/mL) in experiment [1]; 48 µM (≈ 19.1 µg/mL) in experiment [2]; 31 µM (≈ 12.3 µg/mL) in experiment [3]; 28 µM (≈ 11.2 µg/mL) in experiment [4]; 28 µM (≈ 11.2 µg/mL) in experiment [5].

Take `C[C@H]1COc2c(N3CCN(C)CC3)c(F)cc3c(=O)c(C(=O)O)cn1c23.C[C@H]1COc2c(N3CCN(C)CC3)c(F)cc3c(=O)c(C(=O)O)cn1c23.O` [LEVOFLOXACIN]: the MIC in experiment [1] came to 1.4 µM; in experiment [2], 1.1 µM; in experiment [3] it was 0.85 µM; in experiment [4] it was 1.3 µM; in experiment [5], 14 µM.

In the case of `O=C(Cn1cnc([N+](=O)[O-])n1)N1CCN(C(c2ccccc2)c2ccc(Cl)cc2)CC1` (stereo not given), the IC50 in experiment [1] came to 47 µM; in experiment [2], 48 µM; in experiment [3] it was 27 µM; in experiment [4], 29 µM; in experiment [5], 46 µM. For the same compound, the IC90 in experiment [1] is 68 µM; in experiment [2] it was 82 µM; in experiment [3], 32 µM; in experiment [4], 35 µM; in experiment [5] it was 78 µM. The MIC in experiment [1] worked out at 71 µM (≈ 31.3 µg/mL); in experiment [2], 79 µM (≈ 34.8 µg/mL); in experiment [3], 42 µM (≈ 18.5 µg/mL); in experiment [4], 45 µM (≈ 19.8 µg/mL); in experiment [5], 72 µM (≈ 31.7 µg/mL).

As to `O=C(CCn1cnc([N+](=O)[O-])n1)Nc1cccc(-c2ccccc2)c1`, the IC50 in experiment [1] was 8.1 µM; in experiment [2] it was 8.5 µM; in experiment [3], 4.1 µM; in experiment [4], 6.2 µM; in experiment [5] it was 6.8 µM. Moreover, the concentration for an effect of 90% (IC90) came to 11 µM in experiment [1]; 15 µM in experiment [2]; 8 µM in experiment [3]; 11 µM in experiment [4]; 14 µM in experiment [5]. For the same compound, the minimal inhibitory concentration (MIC) in experiment [1] was 12 µM (≈ 4.05 µg/mL); in experiment [2], 15 µM (≈ 5.06 µg/mL); in experiment [3], 7.7 µM (≈ 2.6 µg/mL); in experiment [4] it was 10 µM (≈ 3.37 µg/mL); in experiment [5], 13 µM (≈ 4.39 µg/mL).

For `O=C(Cn1cnc([N+](=O)[O-])n1)N1CCN(Cc2ccc(Cl)c(Cl)c2)CC1`, the IC50 came out at 9.4 µM in experiment [1]; 9 µM in experiment [2]; 4.9 µM in experiment [3]; 7.3 µM in experiment [4]; 7.4 µM in experiment [5]. Also, the IC90 came out at 12 µM in experiment [1]; 14 µM in experiment [2]; 8.3 µM in experiment [3]; 12 µM in experiment [4]; 11 µM in experiment [5]. Besides, the minimum inhibitory concentration (MIC) was determined as 12 µM (≈ 4.79 µg/mL) in experiment [1]; 14 µM (≈ 5.59 µg/mL) in experiment [2]; 7.7 µM (≈ 3.07 µg/mL) in experiment [3]; 12 µM (≈ 4.79 µg/mL) in experiment [4]; 12 µM (≈ 4.79 µg/mL) in experiment [5].

`O=C(CCn1cnc([N+](=O)[O-])n1)Nc1ccc(Oc2ccc(F)cc2)cc1`: the 50% inhibitory concentration (IC50) in experiment [1] turned out to be 21 µM; in experiment [2] it was 29 µM; in experiment [3], 16 µM; in experiment [4], 19 µM; in experiment [5], 26 µM. In addition, the concentration for an effect of 90% (IC90) in experiment [1] is 53 µM; in experiment [2], 65 µM; in experiment [3], 23 µM; in experiment [4] it was 37 µM; in experiment [5] it was 48 µM. In addition, the MIC in experiment [1] came to 58 µM (≈ 21.5 µg/mL); in experiment [2], 50 µM (≈ 18.6 µg/mL); in experiment [3] it was 25 µM (≈ 9.28 µg/mL); in experiment [4] it was 36 µM (≈ 13.4 µg/mL); in experiment [5] it was 46 µM (≈ 17.1 µg/mL).

For the compound `O=C(Cn1cnc([N+](=O)[O-])n1)Nc1ccc(Oc2ccc(Cl)cc2)cc1`, the IC50 was found to be 55 µM in experiment [1]; 54 µM in experiment [2]; 58 µM in experiment [3]; 36 µM in experiment [4]; 56 µM in experiment [5]. In addition, the IC90 in experiment [1] was determined as 150 µM; in experiment [2], 76 µM; in experiment [3] it was 91 µM; in experiment [4], 54 µM; in experiment [5] it was 84 µM. In addition, the minimum inhibitory concentration (MIC) worked out at 100 µM (≈ 37.4 µg/mL) in experiment [1]; 91 µM (≈ 34 µg/mL) in experiment [2]; 98 µM (≈ 36.6 µg/mL) in experiment [3]; 55 µM (≈ 20.6 µg/mL) in experiment [4]; 94 µM (≈ 35.1 µg/mL) in experiment [5].

As to `O=C(Cn1ccnc1[N+](=O)[O-])Nc1ccc(Oc2ccc(F)cc2)cc1`, the half-inhibitory concentration (IC50) was determined as 78 µM in experiment [1]; 65 µM in experiment [2]; 46 µM in experiment [3]; 70 µM in experiment [4]; 75 µM in experiment [5]. Also, the 90% effect concentration (IC90) in experiment [1] is > 200 µM; in experiment [2] it was > 100 µM; in experiment [3] it was > 100 µM; in experiment [4], > 100 µM; in experiment [5], 190 µM. Further, the MIC is > 200 µM in experiment [1]; >200 µM in experiment [2]; >200 µM in experiment [3]; > 200 µM in experiment [4]; 200 µM (≈ 71.3 µg/mL) in experiment [5].

For the compound `CO[C@H]1/C=C/O[C@@]2(C)Oc3c(C)c(O)c4c(O)c(c(/C=N/N5CCN(C)CC5)c(O)c4c3C2=O)NC(=O)/C(C)=C\C=C\[C@H](C)[C@H](O)[C@@H](C)[C@@H](O)[C@@H](C)[C@H](OC(C)=O)[C@@H]1C` [RIFAMPIN], the minimal inhibitory concentration (MIC) is > 50 µM in experiment [1]; 0.012 µM (≈ 0.00988 µg/mL) in experiment [2]; 7.2 µM (≈ 5.93 µg/mL) in experiment [3]; 0.011 µM (≈ 0.00905 µg/mL) in experiment [4]; >0.04 µM in experiment [5].

Consider `O=C(CCn1cnc([N+](=O)[O-])n1)Nc1cccc(OCc2ccccc2)c1`, for which the half-maximal inhibitory concentration (IC50) in experiment [1] was found to be 4.1 µM; in experiment [2] it was 4.5 µM; in experiment [3] it was 2.2 µM; in experiment [4] it was 3.2 µM; in experiment [5], 3.4 µM. The 90% effect concentration (IC90) was 5.2 µM in experiment [1]; 5.9 µM in experiment [2]; 3.7 µM in experiment [3]; 5.6 µM in experiment [4]; 6.2 µM in experiment [5]. Besides, the MIC in experiment [1] worked out at 5.6 µM (≈ 2.06 µg/mL); in experiment [2], 6.2 µM (≈ 2.28 µg/mL); in experiment [3] it was 3.6 µM (≈ 1.32 µg/mL); in experiment [4] it was 5.7 µM (≈ 2.09 µg/mL); in experiment [5], 6 µM (≈ 2.2 µg/mL).

`O=C(Cn1ccnc1[N+](=O)[O-])Nc1ccc(Oc2ccccc2)cc1`: the IC50 in experiment [1] came to 110 µM; in experiment [2] it was 75 µM; in experiment [3], 84 µM; in experiment [4], 80 µM; in experiment [5] it was 74 µM. Further, the IC90 in experiment [1] is > 200 µM; in experiment [2], 140 µM; in experiment [3], > 200 µM; in experiment [4], > 200 µM; in experiment [5] it was > 200 µM. Further, the MIC is > 200 µM in experiment [1]; >200 µM in experiment [2]; >200 µM in experiment [3]; > 200 µM in experiment [4]; >200 µM in experiment [5].

Consider `O=C(Cn1cnc([N+](=O)[O-])n1)Nc1cccc(-c2ccccc2)c1`, for which the IC50 in experiment [1] was determined as 29 µM; in experiment [2], 31 µM; in experiment [3], 24 µM; in experiment [4] it was 26 µM; in experiment [5] it was 29 µM. Also, the concentration for an effect of 90% (IC90) in experiment [1] was 33 µM; in experiment [2], 43 µM; in experiment [3] it was 40 µM; in experiment [4] it was 31 µM; in experiment [5], 39 µM. The minimal inhibitory concentration (MIC) came to 33 µM (≈ 10.7 µg/mL) in experiment [1]; 48 µM (≈ 15.5 µg/mL) in experiment [2]; 35 µM (≈ 11.3 µg/mL) in experiment [3]; 28 µM (≈ 9.05 µg/mL) in experiment [4]; 28 µM (≈ 9.05 µg/mL) in experiment [5].

On to `O=C(Cn1cnc([N+](=O)[O-])n1)Nc1ccc(Oc2ccccc2)cc1`, for which the half-maximal inhibitory concentration (IC50) in experiment [1] was 55 µM; in experiment [2], 73 µM; in experiment [3], 70 µM; in experiment [4] it was 66 µM; in experiment [5], 70 µM. Further, the 90% effect concentration (IC90) in experiment [1] was found to be 170 µM; in experiment [2] it was 130 µM; in experiment [3], 150 µM; in experiment [4], 110 µM; in experiment [5], 130 µM. For the same compound, the minimal inhibitory concentration (MIC) is 116 µM (≈ 39.4 µg/mL) in experiment [1]; 125 µM (≈ 42.4 µg/mL) in experiment [2]; 133 µM (≈ 45.1 µg/mL) in experiment [3]; > 200 µM in experiment [4]; 200 µM (≈ 67.9 µg/mL) in experiment [5].

As to `O=C(NCCCCn1cnc([N+](=O)[O-])n1)c1nc2ccccc2s1`, the minimum inhibitory concentration (MIC) in experiment [1] was determined as 7.9 µM (≈ 2.74 µg/mL); in experiment [2] it was 11.1 µM (≈ 3.84 µg/mL); in experiment [3], 8.9 µM (≈ 3.08 µg/mL); in experiment [4] it was 7.9 µM (≈ 2.74 µg/mL); in experiment [5], 8.2 µM (≈ 2.84 µg/mL).

Consider `O=C(Cn1cnc([N+](=O)[O-])n1)Nc1ccc(Cc2ccccc2)cc1`, for which the IC50 in experiment [1] was determined as 34 µM; in experiment [2], 33 µM; in experiment [3], 27 µM; in experiment [4] it was 29 µM; in experiment [5], 28 µM. Besides, the 90% effect concentration (IC90) in experiment [1] turned out to be 44 µM; in experiment [2], 47 µM; in experiment [3] it was 40 µM; in experiment [4], 37 µM; in experiment [5] it was 32 µM. Also, the minimal inhibitory concentration (MIC) is 48 µM (≈ 16.2 µg/mL) in experiment [1]; 50 µM (≈ 16.9 µg/mL) in experiment [2]; 44 µM (≈ 14.8 µg/mL) in experiment [3]; 31 µM (≈ 10.5 µg/mL) in experiment [4]; 30 µM (≈ 10.1 µg/mL) in experiment [5].

`NNC(=O)c1ccncc1` [ISONIAZID]: the minimum inhibitory concentration (MIC) in experiment [1] was 0.67 µM (≈ 0.0919 µg/mL); in experiment [2], >200 µM; in experiment [3], 0.31 µM (≈ 0.0425 µg/mL); in experiment [4], > 200 µM; in experiment [5] it was 0.35 µM (≈ 0.048 µg/mL).
